Test results: the NIST ThermoML archive (doi:10.1016/j.jct.2008.04.016)

Key:
[1] = for viscosity / mass density: 101.33 kPa, Liquid
[2] = refractive index (Na D-line) (dimensionless); conditions: 101.33 kPa, Liquid

CCCCCC[n+]1ccn(C)c1.O=S(=O)([N-]S(=O)(=O)C(F)(F)F)C(F)(F)F
Conditions | mass density [kg/m3] | refractive index | surface tension liquid-gas [mN/m] | viscosity [mPa·s]
[1], 288.2 K | – | – | – | 97
[1], 298.15 K | 1372.13 | – | 32.5 | –
[1], 298.2 K | – | – | – | 68
[1], 308.15 K | 1363.17 | – | 31.6 | –
[1], 308.2 K | – | – | – | 46
[1], 318.15 K | 1354.23 | – | 30.5 | –
[1], 318.2 K | – | – | – | 32
[1], 328.15 K | 1344.94 | – | 29.7 | –
[1], 328.2 K | – | – | – | 24
[1], 338.15 K | 1335.86 | – | 28.6 | –
[1], 348.15 K | 1326.91 | – | – | –
[1], 358.15 K | 1318.16 | – | – | –
[2], 302.95 K | – | 1.42958 | – | –
[2], 307.75 K | – | 1.42844 | – | –
[2], 313.15 K | – | 1.42737 | – | –
[2], 318.05 K | – | 1.42649 | – | –
[2], 322.95 K | – | 1.42578 | – | –
[2], 328.05 K | – | 1.42484 | – | –
[2], 332.95 K | – | 1.42376 | – | –

CCCCCCn1cc[n+](C)c1.F[P-](F)(F)(F)(F)F [1-hexyl-3-methylimidazolium hexafluorophosphate]
Conditions | mass density [kg/m3] | refractive index | surface tension liquid-gas [mN/m] | viscosity [mPa·s]
[1], 288.2 K | – | – | – | 1018
[1], 298.15 K | 1293.41 | – | 42.1 | –
[1], 298.2 K | – | – | – | 607
[1], 308.15 K | 1285.78 | – | 40.7 | –
[1], 308.2 K | – | – | – | 345
[1], 318.15 K | 1277.92 | – | 39.4 | –
[1], 318.2 K | – | – | – | 215
[1], 328.15 K | 1269.88 | – | 38 | –
[1], 328.2 K | – | – | – | 152
[1], 338.15 K | 1262.13 | – | 36.6 | –
[1], 338.2 K | – | – | – | 113
[1], 348.15 K | 1254.36 | – | – | –
[1], 348.2 K | – | – | – | 87
[1], 358.15 K | 1246.81 | – | – | –
[2], 302.95 K | – | 1.41694 | – | –
[2], 307.75 K | – | 1.41631 | – | –
[2], 313.15 K | – | 1.41531 | – | –
[2], 318.05 K | – | 1.41479 | – | –
[2], 322.95 K | – | 1.41362 | – | –
[2], 328.05 K | – | 1.41307 | – | –
[2], 332.95 K | – | 1.41231 | – | –

CCCCCCn1cc[n+](C)c1.F[B-](F)(F)F [1-hexyl-3-methylimidazolium tetrafluoroborate]
Conditions | mass density [kg/m3] | refractive index | surface tension liquid-gas [mN/m] | viscosity [mPa·s]
[1], 288.2 K | – | – | – | 141
[1], 298.15 K | 1145.32 | – | 36.8 | –
[1], 298.2 K | – | – | – | 102
[1], 308.15 K | 1138.51 | – | 35.6 | –
[1], 308.2 K | – | – | – | 69
[1], 318.15 K | 1131.67 | – | 34.2 | –
[1], 318.2 K | – | – | – | 43
[1], 328.15 K | 1124.89 | – | 33 | –
[1], 328.2 K | – | – | – | 30
[1], 338.15 K | 1118.16 | – | 32.7 | –
[1], 338.2 K | – | – | – | 21
[1], 348.15 K | 1111.47 | – | – | –
[1], 358.15 K | 1104.84 | – | – | –
[2], 302.95 K | – | 1.42672 | – | –
[2], 307.75 K | – | 1.42613 | – | –
[2], 313.15 K | – | 1.42539 | – | –
[2], 318.05 K | – | 1.42443 | – | –
[2], 322.95 K | – | 1.42346 | – | –
[2], 328.05 K | – | 1.42232 | – | –
[2], 332.95 K | – | 1.42146 | – | –
